According to PubChem BioAssay AID330 (DTP/NCI, 2004):
Values joined by “and” are separate entries in the source; they are usually repeats but may differ in a detail not shown here. Equal values may be shown once. Inconclusive results and toxic doses are left out. How the source made its calls: active means survival T/C of 150% or more; inactive means T/C below 125% in these data.

Test system: P388 leukemia ip, CD2F1 mice, survival T/C
Assay: NCI In Vivo Anticancer Drug Screen. Data for tumor model P388 Leukemia (intraperitoneal) in CD2F1 (CDF1) mice
Settings: endpoint: median survival time, higher = longer survival
Outline: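 Mice carrying the transplanted tumor received test compound or vehicle. Survival was recorded in each group, and the value is the treated-group measurement divided by that of the vehicle-treated control group.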

[1] = dose: 60.0 mg/kg/injection, schedule: Q01DX005 (ip), vehicle: Klucel (hydroxypropylcellulose) (HPC)
[2] = dose: 120.0 mg/kg/injection, schedule: Q01DX005 (ip), vehicle: Klucel (hydroxypropylcellulose) (HPC)
[3] = dose: 50.0 mg/kg/injection, schedule: Q01DX005 (ip), vehicle: saline with Tween-80
[4] = dose: 100.0 mg/kg/injection, schedule: Q01DX005 (ip), vehicle: saline with Tween-80
[5] = dose: 50.0 mg/kg/injection, schedule: Q01DX005 (ip), vehicle: Klucel (hydroxypropylcellulose) (HPC)
[6] = dose: 100.0 mg/kg/injection, schedule: Q01DX005 (ip), vehicle: Klucel (hydroxypropylcellulose) (HPC)
[7] = dose: 50.0 mg/kg/injection, schedule: Q01DX009 (ip), vehicle: saline with Tween-80
[8] = dose: 100.0 mg/kg/injection, schedule: Q01DX009 (ip), vehicle: saline with Tween-80
[9] = dose: 200.0 mg/kg/injection, schedule: Q01DX009 (ip), vehicle: saline with Tween-80
[10] = dose: 25.0 mg/kg/injection, schedule: Q01DX005 (ip), vehicle: Klucel (hydroxypropylcellulose) (HPC)
[11] = dose: 12.5 mg/kg/injection, schedule: Q01DX009 (ip), vehicle: saline

Measured: T/C

COc1cc2c(c(OC)c1OC)-c1cc3c(cc1C(OC1OC4COC(c5cccs5)OC4C(O)C1O)C1COC(=O)C1C2)OCO3 (stereo unspecified)
inactive: dose: 14.5 mg/kg/injection, schedule: Q01DX005 (ip), vehicle: Klucel (hydroxypropylcellulose) (HPC) 101 % of control | dose: 29.0 mg/kg/injection, schedule: Q01DX005 (ip), vehicle: Klucel (hydroxypropylcellulose) (HPC) 99 % of control | dose: 58.0 mg/kg/injection, schedule: Q01DX005 (ip), vehicle: Klucel (hydroxypropylcellulose) (HPC) 94 % of control | dose: 116.0 mg/kg/injection, schedule: Q01DX005 (ip), vehicle: Klucel (hydroxypropylcellulose) (HPC) 90 % of control

CCCN(CCNc1cc(OC)cc2cccnc12)C(C)CC (stereo unspecified)
inactive: dose: 50.0 mg/kg/injection, schedule: Q01DX005 (ip), vehicle: saline 107 % of control | dose: 100.0 mg/kg/injection, schedule: Q01DX005 (ip), vehicle: saline 92 % of control

CCC(=O)c1cc(-c2cc(C(=O)CC)[nH]n2)n[nH]1
inactive: [1] 98 % of control | [2] 98 % of control

O=C(CC[N+](=O)[O-])OCC1OC(OC(=O)CC[N+](=O)[O-])C(O)C(O)C1O (stereo unspecified)
inactive: dose: 12.5 mg/kg/injection, schedule: Q01DX005 (ip), vehicle: water 98 % of control | dose: 25.0 mg/kg/injection, schedule: Q01DX001 (ip), vehicle: saline + alcohol 102 % of control | dose: 25.0 mg/kg/injection, schedule: Q01DX005 (ip), vehicle: water 104 % of control | dose: 50.0 mg/kg/injection, schedule: Q01DX001 (ip), vehicle: saline + alcohol 96 % of control | dose: 50.0 mg/kg/injection, schedule: Q01DX005 (ip), vehicle: water 97 % of control | dose: 100.0 mg/kg/injection, schedule: Q01DX001 (ip), vehicle: saline + alcohol 105 % of control | dose: 100.0 mg/kg/injection, schedule: Q01DX005 (ip), vehicle: water 95 % of control | dose: 200.0 mg/kg/injection, schedule: Q01DX005 (ip), vehicle: water 100 % of control

NC(=S)Nc1ccc(Cc2ccc(NC(N)=S)cc2)cc1
inactive: dose: 25.0 mg/kg/injection, schedule: Q04DX003 (ip), vehicle: saline with Tween-80 101 % of control | dose: 50.0 mg/kg/injection, schedule: Q04DX003 (ip), vehicle: saline with Tween-80 101 % of control | dose: 100.0 mg/kg/injection, schedule: Q04DX003 (ip), vehicle: saline with Tween-80 100 % of control | dose: 200.0 mg/kg/injection, schedule: Q04DX003 (ip), vehicle: saline with Tween-80 99 % of control

O=C1C2CC3OC3CC2C(=O)N1CCN1C(=O)C2CC3OC3CC2C1=O (stereo unspecified)
inactive: [3] 100 % of control | [4] 104 % of control | dose: 200.0 mg/kg/injection, schedule: Q01DX005 (ip), vehicle: saline with Tween-80 104 % of control

O=C1c2ccccc2C(O)N1CCc1c[nH]c2ccccc12 (stereo unspecified)
inactive: [5] 93 % of control | [6] 95 % of control | dose: 200.0 mg/kg/injection, schedule: Q01DX005 (ip), vehicle: Klucel (hydroxypropylcellulose) (HPC) 91 % of control

COc1ccc(/C=N/Nc2nnc3c4ccccc4n(C)c3n2)cc1
inactive: dose: 100.0 mg/kg/injection, schedule: Q01DX001 (ip), vehicle: saline with Tween-80 89 % of control | dose: 200.0 mg/kg/injection, schedule: Q01DX001 (ip), vehicle: saline with Tween-80 91 % of control | dose: 400.0 mg/kg/injection, schedule: Q01DX001 (ip), vehicle: saline with Tween-80 107 % of control

C#CC1(OC(=O)Nc2cccc(Cl)c2)CCCCC1
inactive: dose: 12.5 mg/kg/injection, schedule: Q01DX009 (ip), vehicle: saline with Tween-80 91 % of control and 97 % of control | dose: 25.0 mg/kg/injection, schedule: Q01DX009 (ip), vehicle: saline with Tween-80 98 % of control and 110 % of control | [7] 102 % of control and 105 % of control and 90 % of control | [8] 106 % of control and 108 % of control | [9] 97 % of control | dose: 400.0 mg/kg/injection, schedule: Q01DX009 (ip), vehicle: saline with Tween-80 94 % of control

COc1cccc2c1C(=O)c1c(O)c3c(c(O)c1C2=O)C[C@@](O)(C(=O)CSc1ccccc1)C[C@@H]3OC1CC(N)C(O)C(C)O1 (stereo partly specified)
inactive: dose: 0.78 mg/kg/injection, schedule: Q01DX009 (ip), vehicle: water 122 % of control | dose: 12.5 mg/kg/injection, schedule: Q01DX009 (ip), vehicle: water 99 % of control and 91 % of control

CC1=CC(=O)C2OC(=O)CC3C=CCC1C32C (stereo unspecified)
inactive: [10] 99 % of control | [5] 103 % of control | [6] 103 % of control

O=[N+]([O-])c1cnc[nH]1
inactive: dose: 25.0 mg/kg/injection, schedule: Q01DX009 (ip), vehicle: Klucel (hydroxypropylcellulose) (HPC) 105 % of control | dose: 50.0 mg/kg/injection, schedule: Q01DX009 (ip), vehicle: Klucel (hydroxypropylcellulose) (HPC) 100 % of control and 101 % of control | dose: 100.0 mg/kg/injection, schedule: Q01DX009 (ip), vehicle: Klucel (hydroxypropylcellulose) (HPC) 100 % of control and 105 % of control | dose: 200.0 mg/kg/injection, schedule: Q01DX009 (ip), vehicle: Klucel (hydroxypropylcellulose) (HPC) 99 % of control and 100 % of control | dose: 360.0 mg/kg/injection, schedule: Q01DX001 (ip), vehicle: saline with Tween-80 95 % of control | dose: 600.0 mg/kg/injection, schedule: Q01DX001 (ip), vehicle: saline with Tween-80 100 % of control and 92 % of control | dose: 1000.0 mg/kg/injection, schedule: Q01DX001 (ip), vehicle: saline with Tween-80 99 % of control and 106 % of control

c1ccc2c(CCN3CCCCC3)c[nH]c2c1
inactive: dose: 15.0 mg/kg/injection, schedule: Q01DX005 (ip), vehicle: saline with Tween-80 92 % of control | dose: 30.0 mg/kg/injection, schedule: Q01DX005 (ip), vehicle: saline with Tween-80 88 % of control | dose: 60.0 mg/kg/injection, schedule: Q01DX005 (ip), vehicle: saline with Tween-80 101 % of control and 87 % of control

Cc1nc2cc3c(cc2n2cccc12)oc1ccccc13
inactive: [10] 88 % of control | [5] 96 % of control | [6] 86 % of control

N=C(N)CCCCCCCCC(=N)N
inactive: dose: 0.78 mg/kg/injection, schedule: Q01DX009 (ip), vehicle: saline 98 % of control and 111 % of control and 118 % of control | dose: 1.5 mg/kg/injection, schedule: Q01DX009 (ip), vehicle: saline 116 % of control | dose: 1.56 mg/kg/injection, schedule: Q01DX009 (ip), vehicle: saline 112 % of control and 114 % of control | dose: 6.25 mg/kg/injection, schedule: Q01DX009 (ip), vehicle: saline 123 % of control | [11] 107 % of control and 116 % of control and 119 % of control

O=C1Nc2ncnc(Cl)c2Cc2ccccc21
inactive: [7] 100 % of control | [8] 104 % of control | [9] 104 % of control

O=C(Oc1ccc[nH]c1=O)c1ccc([N+](=O)[O-])cc1
inactive: [11] 106 % of control and 110 % of control | dose: 25.0 mg/kg/injection, schedule: Q01DX009 (ip), vehicle: saline 101 % of control and 110 % of control | dose: 50.0 mg/kg/injection, schedule: Q01DX009 (ip), vehicle: saline 102 % of control and 103 % of control and 118 % of control | dose: 100.0 mg/kg/injection, schedule: Q01DX009 (ip), vehicle: saline 105 % of control and 118 % of control | dose: 200.0 mg/kg/injection, schedule: Q01DX009 (ip), vehicle: saline 100 % of control and 110 % of control and 91 % of control | dose: 400.0 mg/kg/injection, schedule: Q01DX009 (ip), vehicle: saline 101 % of control and 110 % of control

O=C1NN=CC1CCCN=Cc1cc(Br)ccc1O (stereo unspecified)
inactive: [7] 96 % of control | [8] 104 % of control | [9] 114 % of control

CC(=O)CCC1=C(O)C(C)=C(C)C(=O)C1=O
inactive: [1] 103 % of control | [2] 115 % of control | dose: 240.0 mg/kg/injection, schedule: Q01DX005 (ip), vehicle: Klucel (hydroxypropylcellulose) (HPC) 109 % of control

NC(N)=NCCC(=O)c1cnc(N)[nH]1
inactive: dose: 8.75 mg/kg/injection, schedule: Q01DX005 (ip), vehicle: Klucel (hydroxypropylcellulose) (HPC) 106 % of control | dose: 17.5 mg/kg/injection, schedule: Q01DX005 (ip), vehicle: Klucel (hydroxypropylcellulose) (HPC) 107 % of control | dose: 35.0 mg/kg/injection, schedule: Q01DX005 (ip), vehicle: Klucel (hydroxypropylcellulose) (HPC) 100 % of control

C=CCNC(=S)N/N=C(/c1ccccn1)C(C)C
inactive: [3] 103 % of control | [4] 109 % of control

C1=CN2C3=NCCN3C3=NCCN3C2c2ccccc21 (stereo unspecified)
inactive: dose: 12.5 mg/kg/injection, schedule: Q04DX002 (ip), vehicle: Klucel (hydroxypropylcellulose) (HPC) 102 % of control | dose: 25.0 mg/kg/injection, schedule: Q04DX002 (ip), vehicle: Klucel (hydroxypropylcellulose) (HPC) 99 % of control | dose: 50.0 mg/kg/injection, schedule: Q04DX002 (ip), vehicle: Klucel (hydroxypropylcellulose) (HPC) 102 % of control
